Measurements reported in patent US10793543B2, “Selective C-KIT kinase inhibitor” (PRECEDO PHARMACEUTICALS CO., LTD, priority 2016, dated 2020).

Assays:
[1] = tested on: GIST-882 cells; assay: Cancer cell proliferation, CCK-8, GIST-882; assay type: cell-based; details: Homo sapiens, GIST882, GIST-882, KIT WT, 72 hours
Description: (§1) In the present example, the following cells were used: chronic myelogenous leukemia cells K562 (expressing P210 Bcr-Abl mutant gene), human megakaryocytic leukemia cells MEG-01 (expressing P210 Bcr-Abl mutant gene), human peripheral blood basophilic leukemia cells Ku812 (expressing Bcr-Abl mutant gene) (all above cells purchased from ATCC, USA), human gastrointestinal stromal tumor cell lines GIST-T1 cells (expressing wild-type C-KIT gene) (purchased from Cosmo Bio Co., Ltd., Japan), human gastrointestinal stromal tumor cell lines GIST-882 cells (expressing wild-type C-KIT gene) (presented by the Professor Gray Lab, Dana-Farber Cancer Institute, Harvard University, USA), mouse pro-B cells BaF3 (purchased from ATCC, USA).
(§2) The cells were incubated for 72 hours, and then the number of viable cells was quantified with a microplate reader by using CCK-8 Cell Viability Assay Kit (purchased from Bestbio Company, Shanghai, China) (CCK-8 can be reduced by dehydrogenase in living cells to a highly water-soluble yellow formazan product, and the amount of formazan produced is proportional to the number of living cells).

[2] = molecular target: T1, protein kinase C-KIT (Homo sapiens, UniProt P10721); assay: In vitro enzyme activity assay (ADP-Glo); assay type: biochemical; details: purified C-KIT kinase domain, ATP 10 μM
T1 construct: The kinase domain of protein kinase C-KIT was cloned into the insect expression vector pFASTHTA; His tag; made in house; host or cells: SF9 insect cells (Bac-to-Bac baculovirus system)
T1 sequence (P10721 589-937 limits assumed): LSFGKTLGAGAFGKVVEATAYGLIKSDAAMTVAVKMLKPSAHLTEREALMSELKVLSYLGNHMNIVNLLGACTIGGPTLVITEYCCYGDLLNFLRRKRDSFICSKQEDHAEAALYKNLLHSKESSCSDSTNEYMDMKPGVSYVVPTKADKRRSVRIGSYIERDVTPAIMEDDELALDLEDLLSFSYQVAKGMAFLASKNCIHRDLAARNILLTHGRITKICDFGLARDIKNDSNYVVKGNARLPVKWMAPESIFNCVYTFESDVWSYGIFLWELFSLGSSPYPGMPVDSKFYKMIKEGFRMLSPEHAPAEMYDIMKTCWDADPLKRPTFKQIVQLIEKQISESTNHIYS
Experimental: The IC50 value of Compound 4 against protein kinase C-KIT was determined in an in vitro enzyme activity assay. The kinase domain of protein kinase C-KIT was cloned into the insect expression vector pFASTHTA (purchased from Invitrogen life technologies), and the protein with His tag was expressed using the insect expression system Bac-to-Bac Baculovirus Expression System (purchased from Invitrogen life technologies). The constructed vector was transfected into SF9 packaging virus (purchased from Invitrogen life technologies), and the virus was used to infect SF9 to express the protein. Purification was performed using affinity chromatography.
9 μL (6 ng/μL) of purified C-KIT protein kinase was reacted with 1 μL of the above Compound 4 with 3× gradient dilution (the final concentrations of the drug were 10 μM, 3 μM, 1 μM, 0.3 μM, 0.1 μM, 0.03 μM, 0.01 μM, 0.003 μM) at room temperature for 4 hours;
2 μL of ATP and 3 μL of substrate, Poly(4:1 Glu, Tyr)Peptide (Promega, US), were added (final concentrations were 10 μM and 0.2 μg/μL, respectively), and reacted at 37° C. for 1 hour; […]
10 μL of kinase detection reagent was added to transfer ADP into ATP, and the newly synthesized ATP was detected by using coupled luciferase/fluorescein reaction, then the IC50 values were calculated by using a plotting method based on the Envision reading.

[3] = tested on: Tel-cKit-BaF3 cells (KIT WT); assay: Cell proliferation, CCK-8, Tel-cKit-BaF3; assay type: cell-based; details: Mus musculus, 72 hours
Description: (§3) In addition, in the present example, further uses: mouse P210/BaF3 (stably expressing P210 Bcr-Abl mutant gene), mouse Tel-ABL-BaF3 (stably expressing wild-type ABL kinase), mouse Tel-cKit-BaF3 (stably expressing C-KITwild-type kinase), mouse Tel-cKit/V559D-BaF3 (stably expressing C-KIT V559D mutant kinase), mouse Tel-cKit/V559D/V654A-BaF3 (stably expressing C-KIT V559D/V654A mutant kinase), mouse Tel-cKit/N822K-BaF3 (stably expressing C-KIT N822K mutant kinase), mouse Tel-cKit/V654A-BaF3 (stably expressing C-KIT V654A mutant kinase), mouse Tel-cKit/L567P-BaF3 (stably expressing C-KIT L567P mutant kinase), mouse Tel-cKit/T670I-BaF3 (stably expressing C-KIT T670I mutant kinase), mouse Tel-PDGFRα-BaF3 (stably expressing PDGFRα kinase), mouse Tel-PDGFRβ-BaF3 (stably expressing PDGFRβ kinase), mouse Tel-VEGFR2-BaF3 (stably expressing VEGFR2 kinase), mouse Tel-RET-BaF3 (stably expressing RET kinase). The above cell lines were all constructed by our laboratory according to the following method: the kinase region sequences of human P210 Bcr-Abl, ABL, C-KIT, C-KIT V559D, C-KIT V559D/V654A, C-KIT N822K, C-KIT V654A, C-KIT L567P, C-KIT T670I, PDGFRα, PDGFRβ, VEGFR2, RET were amplified respectively by PCR, inserted respectively into MSCV-Puro vectors harboring N-terminal TEL fragment and/or NPM fragment and/or TPR fragment (Clontech), then the vectors were stably transfected into mouse BaF3 cells by retrovirus methods and growth factor IL-3 was removed, eventually obtaining cell lines that are transferred protein (P210 Bcr-Abl, ABL, C-KIT, C-KIT V559D, C-KIT V559D/V654A, C-KIT N822K, C-KIT V654A, C-KIT L567P, C-KIT T670I, PDGFRα, PDGFRβ, VEGFR2, RET)-dependent.
as §2

[4] = tested on: phosphorylation of C-KIT and pathway proteins in GIST-T1 cells; assay: Effects on cell signaling pathways (phosphorylation), GIST-T1; assay type: cell-based, human; details: GIST-T1, 0.1 μM, 2 hours
[5] = tested on: MEG-01 cells (P210 Bcr-Abl); assay: Cancer cell proliferation, CCK-8, MEG-01; assay type: cell-based; details: Homo sapiens; MEG-01, P210 Bcr-Abl, 72 hours, CCK-8; read-out: GI50
Description: as §1, §2

[6] = tested on: GIST-T1 cells; assay: Cell cycle distribution by flow cytometry, GIST-T1; assay type: cell-based, human; details: GIST-T1, treated 24 hours
[7] = tested on: K562 cells (P210 Bcr-Abl); assay: Cancer cell proliferation, CCK-8, K562; assay type: cell-based; details: Homo sapiens; K562, P210 Bcr-Abl, 72 hours, CCK-8; read-out: GI50
Description: as §1, §2

[8] = tested on: Tel-VEGFR2-BaF3 cells (VEGFR2); assay: Cell proliferation, CCK-8, Tel-VEGFR2-BaF3; assay type: cell-based; details: Mus musculus, Tel-VEGFR2-BaF3, VEGFR2, 72 hours
Description: as §3, §2

[9] = tested on: Tel-PDGFRβ-BaF3 cells (PDGFRβ); assay: Cell proliferation, CCK-8, Tel-PDGFRβ-BaF3; assay type: cell-based; details: Mus musculus, 72 hours
Description: as §3, §2

[10] = tested on: GIST-882 cells; assay: Apoptosis, PARP and Caspase 3 cleavage by Western Blot, GIST-882; assay type: cell-based, human; details: GIST-882, 0.3 μM, 72 hours
Description: The effects of different concentrations of drugs on protein cleavage of DNA repairase poly(ADP-ribose) polymerase (PARP) and Caspase (cysteinyl aspartate-specific proteinase) 3 at different periods of time were examined by Western Blot.

Structure (SMILES): Cc1ccc(NC(=O)c2cccc(C(F)(F)F)c2)cc1OC1CCN(C(=O)c2ccncc2)CC1 [Compound 4]
- GI50 [1]: 43 nM
- IC50 [2]: 99 nM
- GI50 [3]: 190 nM
- phosphorylation of C-KIT oncogenic protein [4]: significantly inhibiting
- phosphorylation of proteins such as Stat5, AKT, ErK, S6K, S6, PDGFRα [4]: significant inhibitory effects
- GI50 [5]: 7.43 µM
- effect on cell cycle [6]: significantly blocked in the GO-G1 phase
- GI50 [7]: > 10 µM
- GI50 [8]: 347 nM
- GI50 [9]: 27 nM
- cleavage of PARP and Caspase 3 [10]: significant cleavage
